Data set [1] relates to primary CLL cells. The data set can be described thus: Cytotoxicity, TMRE flow cytometry viability, primary CLL cells (Example II.1). It counts as cell-based. As to conditions: Homo sapiens, CLL cell, 6 hours, TMRE positive cells normalized to control, ratio to PF670462, <1 = higher cytotoxicity than PF670462, read-out: Viability of cells, Compound of formula I (100 μM), relative to PF670462 (100 μM), CLL primary cells.

Data set [2] has as its system Maver-1 cells (mantle cell lymphoma). Description: Cytotoxicity, TMRE flow cytometry viability, Maver-1 cells (Example II.1). As to conditions: Homo sapiens, Maver1, 24 hours, TMRE positive cells normalized to control, ratio to PF670462, <1 = higher cytotoxicity than PF670462, read-out: Viability of cells, Compound of formula I (100 μM), relative to PF670462 (100 μM), Maver-1 cells (mantle cell lymphoma). It is filed as cell-based. In general terms: A flow cytometer gives signals particle by particle.

The next data set relates to A375. The data set can be described thus: Cytotoxicity on panel of cell lines, TMRE viability (Example II.2). It is filed as cell-based. As to conditions: Homo sapiens, A-375, 24 hours, mean, control = 1, read-out: cell viability relative to control, A375 (melanoma). The procedure:
(§1) The leukemia and lymphoma-derived cell lines [MEC-1 cell line (derived from chronic lymphocytic leukemia—CLL), Nalm-16 (acute lymphocytic leukemia—ALL), K562 (chronic myeloid leukemia—CML), HL-60 (acute myeloid leukemia—AML), Maver-1 and Mino (mantle cell lymphoma—MCL), BL-41 (Burkitt lymphoma—BL), WSU-NHL (follicular lymphoma—FL), SUDHL (diffuse large B-cell lymphoma—DLBCL)], primary CLL cells and nonmalignant control primary cells were cultured in suspension in flasks under the following conditions: RPMI 1640 medium (Hyclone) supplemented with 10% fetal bovine serum (FBS, Gibco) and 1% penicillin/streptomycin (Life Technologies), 37° C., 5% CO2 and 95% relative humidity, with optimal culture cell density 5×10^6 cells/mL in case of primary cells and 0.5-1×10^6 cells/mL in case of cell lines. The adherent cell lines [A375 (derived from malignant melanoma), MDA-MB-231 and MCF-7 (breast cancer), MIA-PA-CA and PANC1 (pancreatic cancer), PC3 (prostate cancer), OVCAR4 (ovarian cancer) and HEPG2 (hepatocellular carcinoma)] were cultured on plates under the same conditions using RPMI1640 or DMEM medium (Gibco) according to instructions provided by the distributor (DSMZ/ATCC).
(§2) The tested cell lines were incubated with inhibitors at 30 μM concentration or corresponding amount of solvent (DMSO, Sigma Aldrich) in standard culture conditions, seeded as 10^5 cells/500 μl per well in a 24-well plate. Experiments were performed in technical duplicates and 2-3 biological repetitions per cell line. Viability of cells was assessed after 24 hours.
(§3) Relative values are presented as a mean value, showing ratio to the effect of control. Relative value <1=lower viability than control condition.

The subject of the next data set is BL-41. Described as above. As to conditions: Homo sapiens, 24 hours, mean, control = 1, read-out: cell viability relative to control, BL-41 (BL). It is filed as cell-based. The procedure:
as §1, §2, §3

The subject of a further data set is HEPG2. Described as above. It counts as cell-based. As to conditions: Homo sapiens, 24 hours, mean, control = 1, read-out: cell viability relative to control, HEPG2 (hepatocellular carcinoma). The procedure: as §1, §2, §3
Another data set deals with HL60. Described as above. It counts as cell-based. The settings on record: Homo sapiens, HL-60, 24 hours, mean, control = 1, read-out: cell viability relative to control, HL60 (AML). The procedure: as §1, §2, §3
The next data set concerns K562. The data set is described as above. It counts as cell-based. As to conditions: Homo sapiens, 24 hours, mean, control = 1, read-out: cell viability relative to control, K562 (CML). The procedure: as §1, §2, §3
In a further data set the test system is MCF-7. Described as above. It is filed as cell-based. As to conditions: Homo sapiens, MCF7, 24 hours, mean, control = 1, read-out: cell viability relative to control, MCF-7 (breast cancer). The procedure:
as §1, §2, §3

A further data set has as its system MDA-MB-231. Described as above. It counts as cell-based. As to conditions: Homo sapiens, 24 hours, mean, control = 1, read-out: cell viability relative to control, MDA-MB-231 (breast cancer). The protocol: as §1, §2, §3
The next data set relates to MEC-1. Described as above. As to conditions: Homo sapiens, MEC1, 24 hours, mean, control = 1, read-out: cell viability relative to control, MEC-1 (CLL). It counts as cell-based. The protocol: as §1, §2, §3
In another data set the test system is MIA-PA-CA. The data set is described as above. It is filed as cell-based. As to conditions: Homo sapiens, MIA PaCa-2, 24 hours, mean, control = 1, read-out: cell viability relative to control, MIA-PA-CA (pancreatic cancer). The protocol: as §1, §2, §3
The test system of a further data set is Maver1. The description is as above. It counts as cell-based. As to conditions: Homo sapiens, 24 hours, mean, control = 1, read-out: cell viability relative to control, Maver1 (MCL). The procedure:
as §1, §2, §3

The next data set has as its system Mino. The data set is described as above. As to conditions: Homo sapiens, 24 hours, mean, control = 1, read-out: cell viability relative to control, Mino (MCL). It counts as cell-based. The procedure: as §1, §2, §3
A further data set relates to Nalm16. The description is as above. The settings on record: 24 hours, mean, control = 1, read-out: cell viability relative to control, Nalm16 (ALL). It counts as cell-based. The protocol: as §1, §2, §3
The next data set concerns OVCAR4. The description is as above. It is filed as cell-based. The settings on record: Homo sapiens, OVCAR-4, 24 hours, mean, control = 1, read-out: cell viability relative to control, OVCAR4 (ovarian cancer). The procedure: as §1, §2, §3
The subject of the next data set is PANC1. The description is as above. It counts as cell-based. As to conditions: Homo sapiens, PANC-1, 24 hours, mean, control = 1, read-out: cell viability relative to control, PANC1 (pancreatic cancer). The procedure: as §1, §2, §3
The subject of a further data set is PC3. The description is as above. It counts as cell-based. The settings on record: Homo sapiens, PC-3, 24 hours, mean, control = 1, read-out: cell viability relative to control, PC3 (prostate cancer). The protocol:
as §1, §2, §3

The subject of a further data set is SUDHL. The description is as above. It is filed as cell-based. The settings on record: 24 hours, mean, control = 1, read-out: cell viability relative to control, SUDHL (DLBCL). The procedure:
as §1, §2, §3

A further data set deals with WSU-NHL. Described as above. It counts as cell-based. As to conditions: Homo sapiens, 24 hours, mean, control = 1, read-out: cell viability relative to control, WSU-NHL (FL). The protocol: as §1, §2, §3
In another data set the test system is primary CLL. Described as above. It is filed as cell-based. The settings on record: Homo sapiens, 24 hours, mean, control = 1, read-out: cell viability relative to control, primary CLL. The protocol: as §1, §2, §3
Data set [3] in a line: Specificity of cytotoxic activity, TMRE viability, primary nonmalignant control cells (Example II.4). It counts as cell-based. The settings on record: human, N = 4, read-out: Viability - mean % of control, Primary healthy cells.
For data set [4], the system named is primary CLL cells. The settings on record: human, 6 h, 30 µM.
In data set [5] the test system is primary CLL cells. Description: Specificity of cytotoxic activity, TMRE viability, primary CLL cells (Example II.4). As to conditions: for dose-dependent cytotoxic effect / apoptosis of primary CLL cells (FIG. 1): 6 h, indicated doses of inhibitors; for selective toxicity towards cancer cells vs nonmalignant controls (FIG. 4, Table 3): primary CLL cells vs healthy cells.

Data set [6] concerns primary CLL cells. Description: Induction of apoptosis, western blotting of cleaved PARP in primary CLL cells. The settings on record: 10 μM, overnight, listed as preparatory example 3. It counts as cell-based, human. (In general: A western blot detects proteins with antibodies after separation by electrophoresis.)

Entries after “also recorded” stand apart in the source; their conditions may differ. Like-named read-outs stand apart in the source and are kept apart here.

The term viability denotes a read-out of living cells in per cent, often relative to untreated cells.

As for `Nc1nccc(-c2c(-c3ccc(F)cc3)ncn2C2CCCCC2)n1` [PF670462, reference compound], the viability at 100 µM (in the data set with primary CLL cells [1]; in data set [2]) was 100% throughout. For the same molecule, the viability at 30 µM in the data set with A375 was determined as 94%; with BL-41, 82%; in the data set on HEPG2, 78%; in the data set with HL60 it was 98%; with K562, 97%; with MCF-7, 55%. For the same molecule, the viability at 30 µM in the data set on MDA-MB-231 stood at 99%; with MEC-1 it was 92%; in the data set with MIA-PA-CA, 104%; in the data set on Maver1, 85%; in the data set on Mino it was 84%; in the data set on Nalm16 it was 94%. For the same molecule, the viability at 30 µM was 95% in the data set with OVCAR4; 93% in the data set with PANC1; 115% in the data set on PC3; 93% in the data set on SUDHL; 110% with WSU-NHL; 103% in the data set on primary CLL. Moreover, the viability at 6 h, 30 µM in data set [3] worked out at 95.5%. The “Viability - mean % of control, Primary CLL” value with primary CLL cells [4] was 98.3% (N = 8). Also, in the data set with primary CLL cells [5] (30 μM, 6 hours), the “induction of apoptosis in primary CLL cells or nonmalignant control (healthy) cells” value is listed as “not able to induce apoptosis”. The “dose-dependent cytotoxic effect / apoptosis of primary CLL cells (FIG. 1)” value with primary CLL cells [5] is listed as “lacks this effect”.

As to `Fc1ccc(-c2ncn(C3CCCCC3)c2-c2ccnc3[nH]ccc23)cc1` [Preparative Example 3, 4-(1-cyclohexyl-4-(4-fluorophenyl)-1H-imidazol-5-yl)-1H-pyrrolo[2,3-b]pyridine], the viability at 100 µM in the data set on primary CLL cells [1] amounted to 30%; in data set [2], 27%. Besides, the viability at 30 µM in the data set with A375 was 64%; in the data set on BL-41 it was 17%; in the data set with HEPG2 it was 47%; in the data set with HL60, 72%; in the data set with K562 it was 81%; in the data set on MCF-7, 53%. Further, the viability at 30 µM in the data set with MDA-MB-231 is 69%; in the data set with MEC-1, 43%; in the data set with MIA-PA-CA, 61%; in the data set on Maver1 it was 54%; in the data set on Mino, 38%; with Nalm16, 32%. Besides, the viability at 30 µM in the data set on OVCAR4 came out at 73%; with PANC1, 65%; with SUDHL, 18%; in the data set with primary CLL it was 69%. In addition, in data set [3], the viability at 6 h, 30 µM is 80.9%. In addition, in the data set on primary CLL cells [6], the “cleaved PARP, marker of apoptosis (FIG. 2)” value was “Increased PARP cleavage; also recorded: increase of cleaved PARP”. Besides, the “Viability - mean % of control, Primary CLL” value in the data set on primary CLL cells [5] (30 μM, 6 hours, N = 8) was 37.3% (N = 8). Moreover, the “selective toxicity towards cancer cells vs nonmalignant controls (FIG. 4, Table 3)” value in the data set with primary CLL cells [5] (30 μM, 6 hours) is recorded as “significantly higher cytotoxic effects towards cancer cells than nonmalignant controls”; in the data set on primary CLL cells [5] (30 μM, 6 hours, listed as prep. example 3), “selective towards cancer cells”. The “dose-dependent cytotoxic effect / apoptosis of primary CLL cells (FIG. 1)” value in the data set with primary CLL cells [5] (listed as preparatory example 3) is on record as “induced dose-dependently”.

Values taken from US11498920B2, “4-(1H-imidazol-5-yl)-1H-pyrrolo[2, 3-b] pyridines for use in the treatment of leukaemias, lymphomas and solid tumors” (MASARYKOVA UNIVERZITA, priority 2018, dated 2022).
